# Test results as given in patent US20150218534A1, “MODIFIED DNA POLYMERASE” (TOYOBO CO., LTD., priority 2012, published 2015).
# B1: Pfu Y7A/V93K: modified Pfu DNA polymerase with Y7A and V93K (protein, UniProt P61875 1-775, looked up, variant Y7A V93K)
# DNA polymerase: MILDVDAITEEGKPVIRLFKKENGKFKIEHDRTFRPYIYALLRDDSKIEEVKKITGERHGKIVRIVDVEKVEKKFLGKPITVWKLYLEHPQDKPTIREKVREHPAVVDIFEYDIPFAKRYLIDKGLIPMEGEEELKILAFDIETLYHEGEEFGKGPIIMISYADENEAKVITWKNIDLPYVEVVSSEREMIKRFLRIIREKDPDIIVTYNGDSFDFPYLAKRAEKLGIKLTIGRDGSEPKMQRIGDMTAVEVKGRIHFDLYHVITRTINLPTYTLEAVYEAIFGKPKEKVYADEIAKAWESGENLERVAKYSMEDAKATYELGKEFLPMEIQLSRLVGQPLWDVSRSSTGNLVEWFLLRKAYERNEVAPNKPSEEEYQRRLRESYTGGFVKEPEKGLWENIVYLDFRALYPSIIITHNVSPDTLNLEGCKNYDIAPQVGHKFCKDIPGFIPSLLGHLLEERQKIKTKMKETQDPIEKILLDYRQKAIKLLANSFYGYYGYAKARWYCKECAESVTAWGRKYIELVWKELEEKFGFKVLYIDTDGLYATIPGGESEEIKKKALEFVKYINSKLPGLLELEYEGFYKRGFFVTKKRYAVIDEEGKVITRGLEIVRRDWSEIAKETQARVLETILKHGDVEEAVRIVKEVIQKLANYEIPPEKLAIYEQITRPLHEYKAIGPHVAVAKKLAAKGVKIKPGMVIGYIVLRGDGPISNRAILAEEYDPKKHKYDAEYYIENQVLPAVLRILEGFGYRKEDLRYQKTRQVGLTSWLNIKKS
# Legend:
# Type in all cases: biochemical
# [1] = tested on: human genomic DNA (about 1.3 kb) with dUTP added; assay: Evaluation of uracil (dUTP) sensitivity by PCR with dUTP added to the reaction; conditions: closer to 0 = stronger sensitivity to dUTP, closer to 10 = lower sensitivity; summary of Examples 1 to 3
# Experimental: The uracil sensitivity of the modified DNA polymerase of the present invention can be evaluated by PCR. For example, a dUTP solution is added at a final concentration of 0.5 μM to 200 μM to a common PCR reaction solution containing DNA as a template, a buffer, magnesium, dNTPs, primers, and a DNA polymerase to be evaluated, and thermal cycling is performed. After the reaction, the presence or absence of PCR products is confirmed by ethidium bromide-stained agarose electrophoresis, and the uracil sensitivity can be evaluated by the concentration of accepted dUTP. With a DNA polymerase having high uracil sensitivity, the extension reaction is inhibited by the addition of a small amount of dUTP, and PCR products cannot be confirmed. With a DNA polymerase having low uracil sensitivity, gene amplification by PCR can be confirmed without problem, even if a high concentration of dUTP is added. The modified DNA polymerase with low uracil sensitivity in the present invention refers to a DNA polymerase such that when optimum thermal cycling is performed using any primers and DNA as a template in a reaction buffer optimum for the enzyme, even if a high concentration of dUTP is added, an extension reaction is not inhibited and PCR products can be confirmed, compared to wild-type DNA polymerase, which has no mutation.
# More specifically, 10× PCR buffer included in KOD-Plus-Ver. 2 (produced by Toyobo Co. Ltd.) or 10× PCR buffer included in Pfu DNA Polymerase (produced by Agilent) is used; dUTP (produced by Roche) is added to 50 μl of individual reaction solutions containing 1× PCR buffer, 1.5 mM MgSO4, dNTPs (dATP, dTTP, dCTP, and dGTP) in an amount of 0.2 mM, primers represented by SEQ ID NOs: 25 and 26 in an amount of 15 pmol for amplifying about 1.3 kb, 10 ng of human genomic DNA (produced by Roche), and 1 U of each respective enzyme, to final concentrations of 0.5, 5, 50, 100, and 200 μM. PCR is performed using a GeneAmp PCR system 9700 (Applied Biosystems) on the following schedule; preliminary reaction at 94° C. for 30 seconds, followed by 30 cycles, each cycle consisting of 98° C. for 10 seconds, 65° C. for 30 seconds, and 68° C. for 1 minute and 30 seconds. After the completion of each individual reaction, 5 μl of each of the resulting reaction solutions is subjected to agarose electrophoresis, followed by ethidium bromide staining. The uracil sensitivity can be evaluated by confirming amplified DNA fragments of about 1.3 kb under ultraviolet irradiation.
# PCR was performed by the following method to evaluate uracil sensitivity. For PCR, components included in KOD-Plus-Ver. 2 (produced by Toyobo Co. Ltd.) were used. dUTP (produced by Roche) was added to 50 μl of individual reaction solutions containing 1× PCR buffer, 1.5 mM MgSO4, dNTPs (dATP, dTTP, dCTP, dGTP) in an amount of 0.2 mM, primers represented by SEQ ID NOs: 25 and 26 in an amount of 15 pmol for amplifying about 1.3 kb, 10 ng of human genomic DNA (produced by Roche), and 1 U of each respective enzyme, to final concentrations of 0.5, 5, 50, 100, and 200 μM. PCR was performed using a GeneAmp PCR system 9700 (produced by Applied Biosystems) on the following schedule: preliminary reaction at 94° C. for 30 seconds, followed by 30 cycles, each cycle consisting of 98° C. for 10 seconds, 65° C. for 30 seconds, and 68° C. for 1 minute and 30 seconds. After the completion of each individual reaction, 5 μl of each of the resulting reaction solutions was subjected to agarose electrophoresis, followed by ethidium bromide staining. Under ultraviolet irradiation, amplified DNA fragments of about 1.3 kb were confirmed. FIGS. 3, 4, 7, and 8 show the results.
# 482 bp of human β-globin = assay: PCR amplification of 482 bp of human β-globin with dUTP in place of dTTP; set-up: key to Results of PCR in the presence of dUTP 481 bp: A: Amplified; B: Amplified (faint band); C: Not amplified; conditions: dTTP replaced by dUTP, 35 cycles
# Experimental: 482 bp of human β-globin was amplified to compare the amplification difference between the case of using dTTP and the case of using dUTP in PCR, and the sensitivity to dUTP was examined. For amplification, each enzyme was used after being mixed with 1 μg of a KOD antibody per U of the enzyme. For PCR, components included in KOD-Plus-Ver. 2 (produced by Toyobo Co. Ltd.) were used. General dNTPs (dATP, dTTP, dCTP, dGTP) in an amount of 0.2 mM were added to 50 μl of individual reaction solutions, and dNTPs (dATP, dUTP, dCTP, dGTP) in an amount of 0.2 mM in which dTTP was replaced by dUTP were added to 50 μl of individual reaction solutions. The reaction solutions contained 1× PCR buffer, 1.5 mM MgSO4, primers represented by SEQ ID NOs: 27 and 28 in an amount of 15 pmol for amplifying […], 10 ng of human genomic DNA (produced by Roche), and 1 U of each respective enzyme mixed with the antibody. PCR was performed using a GeneAmp PCR system 9700 (produced by Applied Biosystems) on the following schedule: preliminary reaction at 94° C. for 2 minutes, followed by 35 cycles, each cycle consisting of 98° C. for 10 seconds and 68° C. for 1 minute. After the completion of each individual reaction, each of the resulting reaction solutions was analyzed using to a DNA-1000 kit for MultiNA (produced by Shimadzu Corporation) to confirm amplified DNA fragments. FIGS. 5 and 6 show the results.
# [2] = tested on: 1.3 kbp, 2.8 kbp, and 3.6 kbp of human β-globin; assay: Amplification of long-chain DNA in PCR using dUTP; set-up: key to Results of PCR in the presence of dUTP 1.3 kbp / Results of PCR in the presence of dUTP 2.8 kbp / Results of PCR in the presence of dUTP 3.6 kbp: A: Amplified; B: Amplified (faint band); C: Not amplified; conditions: for Results of PCR in the presence of dUTP 1.3 kbp / Results of PCR in the presence of dUTP 2.8 kbp / Results of PCR in the presence of dUTP 3.6 kbp: dTTP replaced by dUTP, 35 cycles
# Experimental: Amplification of 1.3 kbp, 2.8 kbp, and 3.6 kbp of human β-globin in PCR using dUTP was compared. For amplification, each enzyme was used after being mixed with 1 μg of a KOD antibody per U of the enzyme. For PCR, components included in KOD-Plus-Ver. 2 (produced by Toyobo Co. Ltd.) were used. 50 μl of individual reaction solutions containing 1× PCR buffer, 1.5 mM MgSO4, dNTPs (dATP, dUTP, dCTP, dGTP) in an amount of 2 mM in which dTTP was replaced by dUTP, primers in an amount of 15 pmol (SEQ ID NOs: 25 and 26 for amplification of 1.3 kbp; SEQ ID NOs: 26 and 29 for amplification of 2.8 kbp; SEQ ID NOs: 30 and 31 for amplification of 3.6 kbp), 10 ng of human genomic DNA (produced by Roche), and 1 U of each respective enzyme mixed with the antibody were used. PCR was performed using a GeneAmp PCR system 9700 (Applied Biosystems) on the following schedule: preliminary reaction at 94° C. for 2 minutes, followed by 35 cycles, each cycle consisting of 98° C. for 10 seconds, 65° C. for 30 seconds, and 68° C. for about 1 minute per kbp (1 minute and 30 seconds for amplification of 1.3 kbp; 3 minutes for amplification of 2.8 kbp; 4 minutes for amplification of 3.6 kbp). As a control, amplification was also performed using Taq DNA polymerase. Taq DNA polymerase produced by Toyobo Co. Ltd. mixed with Anti-Taq High (produced by Toyobo Co. Ltd.) was used. 50 μl of a reaction solution containing 1× buffer included in Blend Taq, dNTPs (dATP, dUTP, dCTP, dGTP) in an amount of 2 mM in which dTTP was replaced by dUTP, primers in an amount of 10 pmol the same as the above), 10 ng of human genomic DNA (produced by Roche), and 2.5 U of the enzyme mixed with the antibody was used. PCR was performed using a GeneAmp PCR system 9700 (produced by Applied Biosystems) on the following schedule: preliminary reaction at 94° C. for 2 minutes, followed by 35 cycles, each cycle consisting of 94° C. for 30 seconds, 65° C. for 30 seconds, and 68° C. for about 1 minute per kbp (1 minute and 30 seconds for amplification of 1.3 kbp; 3 minutes for amplification of 2.8 kbp; 4 minutes for amplification of 3.6 kbp). After the completion of each individual reaction, 5 μl of each of the resulting reaction solutions was subjected to agarose electrophoresis, followed by ethidium bromide staining, and the amount of amplified DNA fragments was confirmed under ultraviolet irradiation. FIGS. 9 and 10 show the results.
# [3] = tested on: 0.7 kbp of human β-globin amplified in PCR with dUTP; assay: Degradation with UNG of DNA amplified in the presence of dUTP; conditions: 37° C. for 10 minutes (FIG. 13)
# Experimental: It was confirmed whether 0.7 kbp of human β-globin amplified using KOD mutant with reduced uracil sensitivity (N210D/Y7A/P36H) in PCR with dUTP was degraded by being reacted with UNG. For PCR, components included in KOD-Plus-Ver. 2 (produced by Toyobo Co. Ltd.) were used. 50 μl of a reaction solution containing 1× PCR buffer, 1.5 mM MgSO4, dNTPs (dATP, dUTP, dCTP, dGTP) in an amount of 2 mM in which dTTP was replaced by dUTP, primers (SEQ ID NOs: 50 and 51) in an amount of 15 pmol, 10 ng of human genomic DNA (produced by Roche), and 1 U of the enzyme mixed with an antibody was used. PCR was performed using a GeneAmp PCR system 9700 (Applied Biosystems) on the following schedule: preliminary reaction at 94° C. for 2 minutes, followed by 35 cycles, each cycle consisting of 98° C. for 10 seconds, 60° C. for 30 seconds, and 68° C. for 1 minute. The amplification products were diluted with the above-mentioned 1× PCR buffer to 10 ng/μl, 8 μl of the diluted amplification products was mixed with 2 μl of various concentrations of UNG (produced by Roche), and the mixtures were reacted at 37° C. for 10 minutes. After the completion of each individual reaction, each of the mixtures was analyzed using a DNA-1000 kit for MultiNA (produced by Shimadzu Corporation) to confirm the amount of amplification products.
Molecule,Evaluation of dUTP resisitance on a 11-point scale [1],Results of PCR in the presence of dUTP 481 bp (482 bp of human β-globin),Results of PCR in the presence of dUTP 1.3 kbp [2],Results of PCR in the presence of dUTP 2.8 kbp [2],Results of PCR in the presence of dUTP 3.6 kbp [2],degradation with UNG of DNA amplified with the polymerase in the presence of dUTP [3],"amount of amplification of long-chain DNA with dUTP ([2]; 1.3, 2.8, 3.6 kbp, 100% dUTP (FIGS. 9 and 10))"
"KOD Y7A/P36H/V93K: modified KOD DNA polymerase with Y7A, P36H and V93K",0,C,C,C,C,–,–
"KOD H147E/Y7A/P36R/V93K: KOD H147E (exo(+)) mutant with Y7A, P36R and V93K",0,C,C,C,C,–,–
"KOD H147E/Y7A/P36H/V93K: KOD H147E (exo(+)) mutant with Y7A, P36H and V93K",0,C,C,C,C,–,–
"KOD Y7A/P36R/V93K: modified KOD DNA polymerase with Y7A, P36R and V93K",0,C,C,C,C,–,–
B1,–,–,–,–,–,the DNA was degraded with UNG,provided larger amounts of amplification
